# “Also recorded” adds a separate entry of the source.
# Assays:
# [1] = Thermal stability (thermalgravimetric analysis, TGA); assay type: physicochemical; settings: for Tonset / Tonset5%: TGA; for Tonset(5%) - onset temperature for 5% of the decomposition / Td - temperature of total decomposition / Tonset - onset temperature of the decomposition: Table 2, no unit in table (temperature is in ° C.)
# [2] = system: S. aureus, E. faecium, E. coli, C. albicans; test: Average value of MIC / MBC over the four cultures; assay type: cell-based; settings: for MBC Average value / MIC Average value: average over S. aureus, E. faecium, E. coli, C. albicans; for Biological activity compared with the starting quaternary ammonium chloride (average MIC and MBC): in words, refers to Tables 3 and 4
# Procedure: (§1) In the biological activity measurements (tests) following bacteria were used: Staphylococcus aureus ATCC 6538, Enterococcus faecium ATCC 49474, Escherichia coli ATCC 25922 and fungi Candida albicans ATCC 10231.
# (§2) Microbiological activity tests were performed using dissolution method. Determinations were performed on liquid base (background): Mueller-Hinton for bacteria and Sabouraud for fungi. Starting solution had the concentration of 1 g/cm^3. From this solution, all other solutions (lower concentrations) were prepared. To those solutions, 0.1 cm^3 of the suspensions of standard microorganisms at a concentration of 10^6 cfu cm^3 were added. The samples with bacteria were incubated for 24 h at the temperature of 37° C., and with fungi there were incubated for 48 h at the temperature of 22° C. After incubation time the MIC, Minimal Inhibitory Concentration, minimal concentration of the investigated compound at which the growth of the microorganisms is stopped (visually), was specified (recorded) for every sample. To define the MBC, Minimal Bactericidal Concentration, additionally to each solution the 10^−6 cm^3 of the inactivator was added on the base (background) (0.3% lecithin, 3% polysorbate 80 and 0.1% L-cysteine). The samples with bacteria were incubated for 48 h in the temperature of 37° C. The fungi samples were incubated for 5 days at the temperature of 22° C. MBC values were defined (specified) as the concentration at which the level of the reduction of the microorganisms was not lower than 99.99%.
# [3] = system: Enterococcus faecium ATCC 49474; test: Microbiological activity test (dilution method), MIC and MBC; assay type: cell-based
# Procedure: as §1, §2
# [4] = system: Escherichia coli ATCC 25922; test: as above; assay type: cell-based
# Procedure: as §1, §2
# [5] = system: Candida albicans ATCC 10231; test: as above; assay type: cell-based
# Procedure: as §1, §2
# [6] = system: Staphylococcus aureus ATCC 6538; test: as above; assay type: cell-based
# Procedure: as §1, §2
# proteins in the body = settings: cited from earlier work
# [7] = background statement, in words; cited from earlier work
# [8] = in words
# Swiss-Webster male mice = settings: tail dipped 60 seconds in DMSO solution, 1 mM and 100 mM; 47.5° C. water bath; 15, 30, 60, 120 minutes; versus lidocaine hydrochloride
# Procedure: The rat tail flick test is used to determine the local anesthetic ability of lidocaine docusate compared with lidocaine hydrochloride. The rat is immobilized in a restraining sock, so that the tail is only exposed. The tail is dipped into hot water and the number of times the rat flicks its tail is recorded. When the anesthetic is applied, the rat's tail should be numb therefore it will not feel the hot water and the number of tail flicks should decrease.
# For this test Swiss-Webster male mice were used. They were habituated in a restraining sock 3 times during a 10 day period. A baseline tail flick was determined for each rat in 47.5° C. water bath. […] The number of tail flicks was determined at 15, 30, 60, and 120 minutes in the 47.5° C. water bath. […] Using the following equation, one can determine the % MPE at each time for the two compounds in question. % MPE=(TFi−BL)/(10−BL)*100 • TFi=latency to withdraw tail from hot water • BL=baseline withdrawal time without the drug
# [9] = E. faecium, incubated 24 h at 37° C., Mueller-Hinton
# [10] = E. faecium, reduction not lower than 99.99%, 48 h at 37° C.
# [11] = E. coli, incubated 24 h at 37° C., Mueller-Hinton
# [12] = E. coli, reduction not lower than 99.99%, 48 h at 37° C.
# [13] = C. albicans, incubated 48 h at 22° C., Sabouraud
# [14] = C. albicans, reduction not lower than 99.99%, 5 days at 22° C.
# [15] = S. aureus, incubated 24 h at 37° C., Mueller-Hinton
# [16] = S. aureus, reduction not lower than 99.99%, 48 h at 37° C.
compound,measurement,setting,value
CCCCCCCCCCCCOC[N+](C)(C)CCOC(C)=O.O=C([O-])c1ccccc1 [(2-acetoxyethyl)dodecyloxymethyldimethylammonium Benzoate],Tonset,[1],122 °C
CCCCCCCOC[N+](C)(C)CCOC(C)=O.O=C([O-])c1ccccc1 [(2-acetoxyethyl)heptyloxymethyldimethylammonium benzoate],Tonset,[1],120 °C
CCCCCCCCCCCOC[N+](C)(C)CCO.O=C([O-])c1ccccc1 [(2-hydroxyethyl)dimethylundecyloxymethylammonium benzoate],Tonset,[1],127 °C
"CCCCCCCCCC[N+](C)(C)CCCCCCCCCC.[Cl-] [DDAC, didecyldimethylammonium chloride, reference compound]",MBC,[2]; read-out: MBC Average value,27.4 µg/mL
same,MIC,[2]; read-out: MIC Average value,5.5 µg/mL
same,MIC,"[3]; Enterococcus faecium, ATCC49474, 24 h",4 µg/mL
same,MBC,"[3]; Enterococcus faecium, ATCC49474, 48 h",31.2 µg/mL
same,MIC,"[4]; Escherichia coli, ATCC25922, 24 h",8 µg/mL
same,MBC,"[4]; Escherichia coli, ATCC25922, 48 h",31.2 µg/mL
same,MIC,"[5]; Candida albicans, ATCC10231, 48 h",8 µg/mL
same,MBC,"[5]; Candida albicans, ATCC10231, 120 h",16 µg/mL
same,MIC,"[6]; Staphylococcus aureus, ATCC6538, 24 h",2 µg/mL
same,MBC,"[6]; Staphylococcus aureus, ATCC6538, 48 h",31.2 µg/mL
CCCCCCCCCC[N+](C)(C)CCCCCCCCCC.CCCCCCOC(=O)CC(C(=O)OCCCCCC)S(=O)(=O)O (stereo not drawn) [Didecyldimethylammonium Colawet MA-80],Tonset,[1],226 °C
same,Tonset5%,[1],218 °C
CCCCCCCCCC[N+](C)(C)CCCCCCCCCC.CCN1CCN(C(=O)NC(C(=O)NC2C(=O)N3C2SC(C)(C)C3C(=O)[O-])c2ccccc2)C(=O)C1=O (stereo not drawn) [Didecyldimethylammonium Piperacillin],Tonset,[1],205 °C
same,Tonset5%,[1],181 °C
"CC([O-])=NS(=O)(=O)c1ccc(N)cc1.CCCCCCCCCC[N+](C)(C)CCCCCCCCCC [Didecyldimethylammonium Sulfacetamide, didecyldimethylammonium (DDA) sulfacetamide]",Tonset,[1],200.2 °C
same,Tonset5%,[1],183.3 °C
CCCCCCCCCCCCCCCC[n+]1ccccc1.CCCCCCOC(=O)CC(C(=O)OCCCCCC)S(=O)(=O)[O-] (stereo not drawn) [Hexadecylpyridinium Colawet MA-80],Tonset,[1],262 °C
same,Tonset5%,[1],248 °C
"CC(=O)NS(=O)(=O)c1ccc(N)cc1.CCCCCCCCCCCCCCCC[n+]1ccccc1 [Hexadecylpyridinium Sulfacetamide, hexadecylpyridinium sulfacetamide]",Tonset,[1],219 °C
same,Tonset5%,[1],211 °C
"CCC(C)n1ncn(-c2ccc(N3CCN(c4ccc(OCC5COC(Cn6cncn6)(c6ccc(Cl)cc6Cl)O5)cc4)CC3)cc2)c1=O (stereo not drawn) [Itraconazole, itraconazole]",Drug bound to proteins in the body,proteins in the body,99.8%
same,Solubility in organic solvents,[7],slightly soluble in alcohol; also recorded: freely soluble in dichloromethane
same,Solubility in water,[7],insoluble in water
"CC1=CC(=O)[N-]S(=O)(=O)O1.CCCCCCCCCCCC[N+](C)(C)Cc1ccccc1 [[BA][Ace], benzalkonium acesulfamate]",Tonset(5%) - onset temperature for 5% of the decomposition,[1],186
same,MBC Average value,[2],54.7 ppm
same,MIC Average value,[2],14.8 ppm
same,Biological activity compared with the starting quaternary ammonium chloride (average MIC and MBC),[2],"high activity of the salt, slightly lower than that of the starting benzalkonium chloride"
same,MIC,[3]; [9],8 ppm
same,MBC,[3]; [10],31.2 ppm
same,MIC,[4]; [11],31.2 ppm
same,MBC,[4]; [12],125 ppm
same,MIC,[5]; [13],16 ppm
same,MBC,[5]; [14],31.2 ppm
same,MIC,[6]; [15],4 ppm
same,MBC,[6]; [16],31.2 ppm
"CCCCCCCCCCCC[N+](C)(C)Cc1ccccc1.O=C1[N-]S(=O)(=O)c2ccccc21 [[BA][Sac], benzalkonium saccharinate]",Td - temperature of total decomposition,[1],227
same,Tonset - onset temperature of the decomposition,[1],206
same,Tonset(5%) - onset temperature for 5% of the decomposition,[1],176
same,MBC Average value,[2],35.2 ppm
same,MIC Average value,[2],11 ppm
same,MIC,[3]; [9],8 ppm
same,MBC,[3]; [10],16 ppm
same,MIC,[4]; [11],16 ppm
same,MBC,[4]; [12],62.5 ppm
same,MIC,[5]; [13],16 ppm
same,MBC,[5]; [14],31.2 ppm
same,MIC,[6]; [15],4 ppm
same,MBC,[6]; [16],31.2 ppm
"CC1=CC([O-])=NS(=O)(=O)O1.CCCCCCCCCC[N+](C)(C)CCCCCCCCCC [[DDA][Ace], didecyldimethylammonium acesulfamate]",Td - temperature of total decomposition,[1],245
same,Tonset - onset temperature of the decomposition,[1],201
same,Tonset(5%) - onset temperature for 5% of the decomposition,[1],182
same,MBC Average value,[2],31.4 ppm
same,MIC Average value,[2],12 ppm
same,Biological activity compared with the starting quaternary ammonium chloride (average MIC and MBC),[2],only slight difference in the biological activity
same,MIC,[3]; [9],8 ppm
same,MBC,[3]; [10],31.2 ppm
same,MIC,[4]; [11],16 ppm
same,MBC,[4]; [12],62.5 ppm
same,MIC,[5]; [13],16 ppm
same,MBC,[5]; [14],16 ppm
same,MIC,[6]; [15],8 ppm
same,MBC,[6]; [16],16 ppm
"CCCCCCCCCC[N+](C)(C)CCCCCCCCCC.O=C1[N-]S(=O)(=O)c2ccccc21 [[DDA][Sac], Didecyldimethylammonium Saccharinate]",Td - temperature of total decomposition,[1],221
same,Tonset - onset temperature of the decomposition,[1],211
same,Tonset(5%) - onset temperature for 5% of the decomposition,[1],184
same,MBC Average value,[2],27.6 ppm
same,MIC Average value,[2],11 ppm
same,Biological activity compared with the starting quaternary ammonium chloride (average MIC and MBC),[2],high in comparison with starting material
same,MIC,[3]; [9],8 ppm
same,MBC,[3]; [10],16 ppm
same,MIC,[4]; [11],16 ppm
same,MBC,[4]; [12],16 ppm
same,MIC,[5]; [13],16 ppm
same,MBC,[5]; [14],16 ppm
same,MIC,[6]; [15],4 ppm
same,MBC,[6]; [16],62.5 ppm
CCCCCCCCCC[N+](C)(C)CCCCCCCCCC.Cc1ccc(S(=O)(=O)[O-])cc1 [didecyldimethylammonium p-toluenesulfonate],Solubility / miscibility in water,[8],insoluble in water and hexane
same,Solubility in organic solvents / other media,[8],"soluble in chloroform, acetone, DMSO"
CCCCC(CC)COC(=O)CC(C(=O)OCC(CC)CCCC)S(=O)(=O)O.CCN(CC)CC(=O)Nc1c(C)cccc1C (stereo not drawn) [lidocaine docusate],"Anesthetic ability (tail flick, % MPE graphs)",Swiss-Webster male mice,higher and longer anesthetic ability than lidocaine hydrochloride
"didecyldimethylammonium N-[4-[[(2-amino-1,4-dihydro-4-oxo-6-pteridinyl)methyl]amino]benzoyl]-L-glutamate",Tonset,[1],201 °C
same,Tonset5%,[1],153 °C

# From patent publication US8802596B2, “Multi-functional ionic liquid compositions for overcoming polymorphism and imparting improved properties for active pharmaceutical, biological, nutritional, and energetic ingredients” (Board of Trustees of the University of Alabama, priority 2005, dated 2014)
